Patent US20100184699A1, “Peptide Derived From Prostate-Related Protein As Cancer Vaccine Candidate For Prostate Cancer Patient Who Is Positive For Hla-A3 Super-Type Allele Molecule” (priority 2005, published 2010)

Test system: peptide-specific IgG in plasma of prostate cancer patients and healthy donors
Experiment: Detection of peptide-specific IgG in plasma by ELISA
Type: binding, human
Settings: for IgG reactive to peptide in plasma: 1:100-diluted plasma
[1] = Prostate cancer patient 12, A11
[2] = Prostate cancer patient 13, A11
[3] = Prostate cancer patient 16, A33
[4] = Prostate cancer patient 17, A33
[5] = Prostate cancer patient 19, A33
[6] = Prostate cancer patient 20, A33
[7] = Prostate cancer patient 14, A33

Row | Sequence | IgG reactive to peptide in plasma, Total (positive/tested) (Healthy donors) | IgG reactive to peptide in plasma (Prostate cancer patient 2, A31) | IgG reactive to peptide in plasma (Prostate cancer patient 4, A31) | IgG reactive to peptide in plasma (Prostate cancer patient 6, A31) | IgG reactive to peptide in plasma (Prostate cancer patient 9, A11) | IgG reactive to peptide in plasma [1] | IgG reactive to peptide in plasma [4] | IgG reactive to peptide in plasma [5] | IgG reactive to peptide in plasma [6] | IgG reactive to peptide in plasma, Total (positive/tested) (Prostate cancer patients) | IgG reactive to peptide in plasma [7] | other results
1 | HIHSTNEVTR (PSMA 345-354) [PSMA-derived peptide] | 0/9 | + (IgG reactive to a corresponding peptide was judged to be positive when a difference of the optical density (OD) in a 1:100-diluted plasma was more than 100) | + (IgG reactive to a corresponding peptide was judged to be positive when a difference of the optical density (OD) in a 1:100-diluted plasma was more than 100) | + (IgG reactive to a corresponding peptide was judged to be positive when a difference of the optical density (OD) in a 1:100-diluted plasma was more than 100) | + (IgG reactive to a corresponding peptide was judged to be positive when a difference of the optical density (OD) in a 1:100-diluted plasma was more than 100) | + (IgG reactive to a corresponding peptide was judged to be positive when a difference of the optical density (OD) in a 1:100-diluted plasma was more than 100) | + (IgG reactive to a corresponding peptide was judged to be positive when a difference of the optical density (OD) in a 1:100-diluted plasma was more than 100) | + (IgG reactive to a corresponding peptide was judged to be positive when a difference of the optical density (OD) in a 1:100-diluted plasma was more than 100) | + (IgG reactive to a corresponding peptide was judged to be positive when a difference of the optical density (OD) in a 1:100-diluted plasma was more than 100) | 11/20 | – | IgG reactive to peptide in plasma (Prostate cancer patient 5, A31): + (IgG reactive to a corresponding peptide was judged to be positive when a difference of the optical density (OD) in a 1:100-diluted plasma was more than 100); IgG reactive to peptide in plasma [2]: + (IgG reactive to a corresponding peptide was judged to be positive when a difference of the optical density (OD) in a 1:100-diluted plasma was more than 100); IgG reactive to peptide in plasma [3]: + (IgG reactive to a corresponding peptide was judged to be positive when a difference of the optical density (OD) in a 1:100-diluted plasma was more than 100)
2 | LYLPFRNCPR (PAP 154-163) [PAP-derived peptide] | 0/9 | – | – | – | + (IgG reactive to a corresponding peptide was judged to be positive when a difference of the optical density (OD) in a 1:100-diluted plasma was more than 100) | – | – | – | – | 3/20 | – | IgG reactive to peptide in plasma (Prostate cancer patient 10, A11): + (IgG reactive to a corresponding peptide was judged to be positive when a difference of the optical density (OD) in a 1:100-diluted plasma was more than 100); IgG reactive to peptide in plasma [3]: + (IgG reactive to a corresponding peptide was judged to be positive when a difference of the optical density (OD) in a 1:100-diluted plasma was more than 100)
3 | TLRGAVEPDR [PSMA 361-370] | 0/9 | + (IgG reactive to a corresponding peptide was judged to be positive when a difference of the optical density (OD) in a 1:100-diluted plasma was more than 100) | + (IgG reactive to a corresponding peptide was judged to be positive when a difference of the optical density (OD) in a 1:100-diluted plasma was more than 100) | + (IgG reactive to a corresponding peptide was judged to be positive when a difference of the optical density (OD) in a 1:100-diluted plasma was more than 100) | + (IgG reactive to a corresponding peptide was judged to be positive when a difference of the optical density (OD) in a 1:100-diluted plasma was more than 100) | + (IgG reactive to a corresponding peptide was judged to be positive when a difference of the optical density (OD) in a 1:100-diluted plasma was more than 100) | + (IgG reactive to a corresponding peptide was judged to be positive when a difference of the optical density (OD) in a 1:100-diluted plasma was more than 100) | + (IgG reactive to a corresponding peptide was judged to be positive when a difference of the optical density (OD) in a 1:100-diluted plasma was more than 100) | + (IgG reactive to a corresponding peptide was judged to be positive when a difference of the optical density (OD) in a 1:100-diluted plasma was more than 100) | 12/20 | + (IgG reactive to a corresponding peptide was judged to be positive when a difference of the optical density (OD) in a 1:100-diluted plasma was more than 100) | IgG reactive to peptide in plasma (Prostate cancer patient 7, A11): + (IgG reactive to a corresponding peptide was judged to be positive when a difference of the optical density (OD) in a 1:100-diluted plasma was more than 100); IgG reactive to peptide in plasma (Prostate cancer patient 8, A11): + (IgG reactive to a corresponding peptide was judged to be positive when a difference of the optical density (OD) in a 1:100-diluted plasma was more than 100); IgG reactive to peptide in plasma (Prostate cancer patient 18, A33): + (IgG reactive to a corresponding peptide was judged to be positive when a difference of the optical density (OD) in a 1:100-diluted plasma was more than 100)
4 | RIYNVIGTLR [PSMA 354-363] | 0/9 | – | – | + (IgG reactive to a corresponding peptide was judged to be positive when a difference of the optical density (OD) in a 1:100-diluted plasma was more than 100) | – | – | – | – | + (IgG reactive to a corresponding peptide was judged to be positive when a difference of the optical density (OD) in a 1:100-diluted plasma was more than 100) | 2/20 | – | –
5 | VYIRSTDVDR (PAP 102-111) [PAP-derived peptide] | 0/9 | – | – | – | – | – | – | – | – | 2/20 | + (IgG reactive to a corresponding peptide was judged to be positive when a difference of the optical density (OD) in a 1:100-diluted plasma was more than 100) | IgG reactive to peptide in plasma [2]: + (IgG reactive to a corresponding peptide was judged to be positive when a difference of the optical density (OD) in a 1:100-diluted plasma was more than 100)
6 | RNKSVILLGR (PSA 68-77) [PSA-derived peptide] | 0/9 | – | – | – | – | – | – | – | – | 0/20 | – | –
7 | SLYTKVVHYR [PSA 241-250] | 0/9 | – | – | – | – | – | – | – | – | 0/20 | – | –
8 | VTLVFRHGDR (PAP 38-47) [PAP-derived peptide] | 1/9 | – | – | – | + (IgG reactive to a corresponding peptide was judged to be positive when a difference of the optical density (OD) in a 1:100-diluted plasma was more than 100) | – | – | – | – | 1/20 | – | IgG reactive to peptide in plasma (Healthy donor 8, A31): + (IgG reactive to a corresponding peptide was judged to be positive when a difference of the optical density (OD) in a 1:100-diluted plasma was more than 100)
9 | FIDPLGLPDR (PSMA 675-684) [PSMA-derived peptide] | 0/9 | + (IgG reactive to a corresponding peptide was judged to be positive when a difference of the optical density (OD) in a 1:100-diluted plasma was more than 100) | + (IgG reactive to a corresponding peptide was judged to be positive when a difference of the optical density (OD) in a 1:100-diluted plasma was more than 100) | + (IgG reactive to a corresponding peptide was judged to be positive when a difference of the optical density (OD) in a 1:100-diluted plasma was more than 100) | + (IgG reactive to a corresponding peptide was judged to be positive when a difference of the optical density (OD) in a 1:100-diluted plasma was more than 100) | + (IgG reactive to a corresponding peptide was judged to be positive when a difference of the optical density (OD) in a 1:100-diluted plasma was more than 100) | + (IgG reactive to a corresponding peptide was judged to be positive when a difference of the optical density (OD) in a 1:100-diluted plasma was more than 100) | + (IgG reactive to a corresponding peptide was judged to be positive when a difference of the optical density (OD) in a 1:100-diluted plasma was more than 100) | + (IgG reactive to a corresponding peptide was judged to be positive when a difference of the optical density (OD) in a 1:100-diluted plasma was more than 100) | 10/20 | – | IgG reactive to peptide in plasma (Prostate cancer patient 5, A31): + (IgG reactive to a corresponding peptide was judged to be positive when a difference of the optical density (OD) in a 1:100-diluted plasma was more than 100); IgG reactive to peptide in plasma (Prostate cancer patient 8, A11): + (IgG reactive to a corresponding peptide was judged to be positive when a difference of the optical density (OD) in a 1:100-diluted plasma was more than 100)
10 | FLLFFWLDR [PAP 20-28] | 0/9 | – | – | – | – | – | – | – | – | 1/20 | + (IgG reactive to a corresponding peptide was judged to be positive when a difference of the optical density (OD) in a 1:100-diluted plasma was more than 100) | –
